The results in this text go back to the NIST ThermoML archive (doi:10.1016/j.fluid.2007.01.043).

The nature of this data set: cn = amount concentration of the nth substance listed, in mol/dm3. The following applies: 308 K, Liquid; for mass density: 101 kPa; for viscosity: 101.3 kPa.

± gives the expanded uncertainty stated by the source.

Usually mass density stands for the mass of a sample divided by its volume. Broadly, the viscosity is the resistance of a fluid to flow. Take `[Cl][Ni][Cl]` [nickel chloride (NiCl2)] + O: the mass density is, setting by setting: (c1 = 0.06) 994.09 ± 0.7 kg/m3; (c1 = 0.1) 1004 ± 0.7 kg/m3. Also, the viscosity (c1 = 0.06) is reported as 0.7261 ± 0.019 mPa·s and the viscosity (c1 = 0.1) stood at 0.7469 ± 0.019 mPa·s.
The corresponding values for `O=[N+]([O-])[O-].O=[N+]([O-])[O-].[Cu+2]` [copper dinitrate] + O are 1002.3 ± 0.8 kg/m3, 1008.6 ± 0.8 kg/m3, 0.7347 ± 0.019 mPa·s and 0.7487 ± 0.02 mPa·s.
